The target of assay [1] is T1, N-acylethanolamine acid amidase (NAAA) (Homo sapiens, UniProt Q02083).
T1 sequence (Q02083 29-125): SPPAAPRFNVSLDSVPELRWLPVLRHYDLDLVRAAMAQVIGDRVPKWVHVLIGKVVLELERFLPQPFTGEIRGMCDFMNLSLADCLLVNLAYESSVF
T1 sequence (Q02083 126-359): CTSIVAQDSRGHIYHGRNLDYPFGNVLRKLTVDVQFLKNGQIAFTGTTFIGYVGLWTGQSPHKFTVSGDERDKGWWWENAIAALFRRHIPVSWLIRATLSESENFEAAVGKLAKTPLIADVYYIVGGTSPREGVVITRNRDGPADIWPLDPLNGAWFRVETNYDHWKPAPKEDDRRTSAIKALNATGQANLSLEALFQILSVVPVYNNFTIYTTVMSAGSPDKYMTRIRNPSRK
Put plainly: recombinant enzyme activity assay, heptaenyl ethanolamide substrate, pH […]. It is filed as biochemical.

The target in assay [2] is T2, fatty acid amide hydrolase (FAAH) (Homo sapiens, UniProt O00519).
T2 sequence (O00519 1-579): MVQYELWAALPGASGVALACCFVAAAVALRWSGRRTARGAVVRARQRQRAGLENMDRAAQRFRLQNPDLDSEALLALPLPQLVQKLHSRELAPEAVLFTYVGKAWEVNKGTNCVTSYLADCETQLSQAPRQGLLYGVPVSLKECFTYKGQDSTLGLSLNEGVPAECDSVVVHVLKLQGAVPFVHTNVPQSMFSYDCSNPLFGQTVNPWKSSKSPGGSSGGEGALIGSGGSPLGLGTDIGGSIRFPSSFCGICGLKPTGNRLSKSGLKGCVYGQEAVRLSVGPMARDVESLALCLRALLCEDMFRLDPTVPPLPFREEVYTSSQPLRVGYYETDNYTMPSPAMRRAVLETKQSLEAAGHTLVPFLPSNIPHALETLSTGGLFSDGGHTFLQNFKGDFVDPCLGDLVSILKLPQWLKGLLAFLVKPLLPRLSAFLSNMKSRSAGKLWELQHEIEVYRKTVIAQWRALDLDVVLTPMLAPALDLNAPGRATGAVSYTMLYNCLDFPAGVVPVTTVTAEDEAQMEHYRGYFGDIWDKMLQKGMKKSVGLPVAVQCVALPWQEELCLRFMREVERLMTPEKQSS
Put plainly: recombinant enzyme activity assay, anandamide substrate, pH […]. It is filed as biochemical.

The term IC50 denotes the midpoint of a concentration-inhibition curve.

With `CC(=O)O[C@H]1CC(C)(C)C(=C=C/C(C)=C/C=C/C(C)=C/C=C/C=C(C)/C=C/C=C(\C)C(=O)C[C@@]23O[C@]2(C)C[C@@H](O)CC3(C)C)[C@](C)(O)C1` [FX, Fucoxanthin], the half-inhibitory concentration (IC50) in assay [1] is 31.4 ± 1.06 µM. Take `C\C(C=C=C1C(C)(C)C[C@H](O)C[C@@]1(C)O)=C/C=C/C(C)=C/C=C/C=C(C)/C=C/C=C(\C)C(=O)C[C@@]12O[C@]1(C)C[C@@H](O)CC2(C)C` [FXOH, Fucoxanthinol]: the concentration for half-maximal inhibition (IC50) in assay [1] was determined as 12.8 ± 1.12 µM; in assay [2] it was 42.4 ± 1.11 µM.
